Results on 1 molecule are retold here after paper PMC4459529 (Chemistry & biology, 2015).

In this assay the target is monoacylglycerol lipase (MGL) (Rattus norvegicus, UniProt Q8R431). Kind of assay: biochemical.
Sequence of monoacylglycerol lipase (MGL) (Q8R431 whole entry): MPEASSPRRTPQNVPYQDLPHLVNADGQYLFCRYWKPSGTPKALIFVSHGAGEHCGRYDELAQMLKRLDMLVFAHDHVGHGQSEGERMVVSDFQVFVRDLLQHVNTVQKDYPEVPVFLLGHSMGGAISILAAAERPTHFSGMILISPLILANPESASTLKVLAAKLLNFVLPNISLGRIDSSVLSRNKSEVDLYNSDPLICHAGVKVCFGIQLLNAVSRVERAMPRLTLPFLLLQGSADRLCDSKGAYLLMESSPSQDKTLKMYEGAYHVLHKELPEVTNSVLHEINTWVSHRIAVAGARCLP

In general, IC50 refers to the concentration that gives 50% inhibition. Lower therefore signals greater potency. As to `OO` [hydrogen peroxide], the IC50 worked out at 8.2 ± 1.3 µM.
